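96-well plates; 48 h exposure; 5 concentrations. Endpoints by linear interpolation between flanking doses. Not reached: highest tested concentration assigned. The concentration for 50% growth inhibition is given as GI50.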 Active and inactive are the calls of the source. No stated cut-off is given here; in the data, active = GI50 up to about 1.1 µM and inactive = higher.
What was measured:
Assay in all cases: inhibition of tumour cell growth, NCI panel, 48 h
RPMI-8226 = test system: RPMI-8226
KM12 = test system: KM12
OVCAR-4 = test system: OVCAR-4
OVCAR-3 = test system: OVCAR-3
UO-31 = test system: UO-31
UACC-62 = test system: UACC-62
SF-539 = test system: SF-539
SN12C = test system: SN12C
SK-MEL-28 = test system: SK-MEL-28
NCI-H226 = test system: NCI-H226
MCF7 = test system: MCF7
M14 = test system: M14
SF-295 = test system: SF-295
HCT-116 = test system: HCT-116
A549 = test system: A549
IGROV-1 = test system: IGROV-1
SNB-75 = test system: SNB-75
COLO 205 = test system: COLO 205
U-251 = test system: U-251
Malme-3M = test system: Malme-3M

SMILES	GI50 (RPMI-8226)	GI50 (KM12)	GI50 (OVCAR-4)	GI50 (OVCAR-3)	GI50 (UO-31)	GI50 (UACC-62)	GI50 (SF-539)	GI50 (SN12C)	GI50 (SK-MEL-28)	GI50 (NCI-H226)	GI50 (MCF7)	GI50 (M14)	GI50 (SF-295)	GI50 (HCT-116)	GI50 (A549)	GI50 (IGROV-1)	GI50 (SNB-75)	GI50 (COLO 205)	GI50 (U-251)	GI50 (Malme-3M)
CCC1C(c2cc(OC)c(OC)c(OC)c2)c2cc3c(cc2OC1N1CCCC1)OCO3 (stereo not given)	3.05 µM (inactive)	0.743 µM (active)	12.7 µM (inactive)	1.45 µM (inactive)	4.1 µM (inactive)	1.31 µM (inactive)	1.39 µM (inactive)	4.36 µM (inactive)	8.87 µM (inactive)	3.08 µM (inactive)	0.542 µM (active)	1.75 µM (inactive)	1.07 µM (active)	1.32 µM (inactive)	2.76 µM (inactive)	2.62 µM (inactive)	2.46 µM (inactive)	1.55 µM (inactive)	2.56 µM (inactive)	6.98 µM (inactive)
CC(C)CCC1(CCN)C(=O)NC(=O)NC1=O	> 100 µM (inactive)	> 100 µM (inactive)	> 100 µM (inactive)	> 100 µM (inactive)	> 100 µM (inactive)	> 100 µM (inactive)	> 100 µM (inactive)	> 100 µM (inactive)	> 100 µM (inactive)	> 100 µM (inactive)	> 100 µM (inactive)	> 100 µM (inactive)	> 100 µM (inactive)	> 100 µM (inactive)	> 100 µM (inactive)	> 100 µM (inactive)	> 100 µM (inactive)	> 100 µM (inactive)	> 100 µM (inactive)	> 100 µM (inactive)
COC(=O)c1ccccc1CC1Cc2ccc3c(c2C1=O)CCCC3 (stereo not given)	19.2 µM (inactive)	46.2 µM (inactive)	23.3 µM (inactive)	51.4 µM (inactive)	52.8 µM (inactive)	57.1 µM (inactive)	62.1 µM (inactive)	37.2 µM (inactive)	64.9 µM (inactive)	60.1 µM (inactive)	37.4 µM (inactive)	49 µM (inactive)	32 µM (inactive)	29.2 µM (inactive)	34.3 µM (inactive)	> 100 µM (inactive)	40.4 µM (inactive)	34 µM (inactive)	50.6 µM (inactive)	28.1 µM (inactive)
O=C(O)CNc1ccc2c(c1)Cc1cc(Br)ccc1-2	19.9 µM (inactive)	9.57 µM (inactive)	20.1 µM (inactive)	28.5 µM (inactive)	36 µM (inactive)	17.4 µM (inactive)	23.7 µM (inactive)	22.7 µM (inactive)	31.3 µM (inactive)	21.2 µM (inactive)	> 38.4 µM (inactive)	21.8 µM (inactive)	24.5 µM (inactive)	18.5 µM (inactive)	21.3 µM (inactive)	18 µM (inactive)	34.6 µM (inactive)	21.1 µM (inactive)	26.6 µM (inactive)	20.6 µM (inactive)
CCCCCCCCCCCCN(CC(O)C(O)C(OC1OC(CO)C(O)C(O)C1O)C(O)CO)C(=O)CCCCCCCCCCC (stereo not given)	29 µM (inactive)	20.2 µM (inactive)	21.4 µM (inactive)	21.8 µM (inactive)	21.5 µM (inactive)	20.2 µM (inactive)	39.8 µM (inactive)	22.1 µM (inactive)	17.5 µM (inactive)	23.4 µM (inactive)	28.1 µM (inactive)	19.5 µM (inactive)	19 µM (inactive)	19.5 µM (inactive)	23.6 µM (inactive)	19.9 µM (inactive)	18.5 µM (inactive)	20.4 µM (inactive)	18.6 µM (inactive)	18.5 µM (inactive)
CC(C)NC(=O)OCc1c(COC(=O)NC(C)C)c(-c2ccc[n+](COC(=O)CC(C)(C)C)c2)n2c1CCC2	> 100 µM (inactive)	> 100 µM (inactive)	> 100 µM (inactive)	> 100 µM (inactive)	93.8 µM (inactive)	39.9 µM (inactive)	84.9 µM (inactive)	73.8 µM (inactive)	> 100 µM (inactive)	> 100 µM (inactive)	70.1 µM (inactive)	> 100 µM (inactive)	60.5 µM (inactive)	> 100 µM (inactive)	> 100 µM (inactive)	> 100 µM (inactive)	67.6 µM (inactive)	89.3 µM (inactive)	94.8 µM (inactive)	> 100 µM (inactive)
O=C1OC(OC/C(Br)=C(\Br)COC2OC(=O)C(Cl)=C2Cl)C(Cl)=C1Cl (stereo not given)	1.08 µM (active)	15.2 µM (inactive)	7.6 µM (inactive)	3.95 µM (inactive)	3.18 µM (inactive)	6.3 µM (inactive)	6.89 µM (inactive)	5.64 µM (inactive)	7.82 µM (inactive)	12.8 µM (inactive)	4.41 µM (inactive)	3.66 µM (inactive)	18.3 µM (inactive)	1.86 µM (inactive)	14.9 µM (inactive)	12.3 µM (inactive)	15.9 µM (inactive)	1.67 µM (inactive)	4.58 µM (inactive)	2.55 µM (inactive)

From ChEMBL document CHEMBL1201862, “PubChem BioAssay data set” (2004)
